# Assay results: US20020128232A1, “Heterocyclic angiogenesis inhibitors” (priority 2000, published 2002)
# Where a name gives a salt, the structure may show the parent alone. Read-outs that look alike come from different tables or passages of the source. Marks after values point to notes of the source that are not given here.
# Test system: rat aorta ring
# Assay: Rat aorta assay for angiogenesis inhibition (rat aorta ring model, micro-vessel growth scored)
# Assay type: cell-based
# Settings: for inhibition at 4 µg/mL / inhibition at 20 µg/mL / inhibition at 100 µg/mL / inhibition at 50 µg/mL / inhibition at 10 µg/mL: Rattus norvegicus
# Excerpt: The rat aorta ring model based on that described by Nicosia and Ottinetti (Nicosia, R. F. et al., Lab. Investigation 63: 115, 1990; Nicosia, R. F. et al., Cell. Dev. Bio. 26: 119-128, 1990), was used throughout the assay.
# The agarose was made up as a 1.5% solution in distilled water and brought to the boil to form a clear solution which was poured into sterile 9 cm petri dishes, covered and allowed to cool and set.
# Maintaining sterile conditions, agarose rings were obtained by punching two concentric circles, with sterile 10 and 17 mm hole punches, respectively, in the agarose gel. Using sterile forceps, the rings are removed and placed, three per well in each of the 6-well plates.
# The MEM was prepared according to manufacturer's directions, but before filtering through a 0.22 μm filter, HEPES and L-glutamine were added to give 10 mM and 1 mM concentrations respectively with pH adjusted to 7.4. Eight hundred mL of this medium were filtered through a 0.2 μm filter along with the antibiotics (50 mg/L Gentamycin sulphate and 2.5 mg/L Amphotericin B) and 200 mL of FCS (to give 20%) to yield one liter of medium.
# The aorta was removed from a 3-4 month male Copenhagen rat and transferred to a dissecting dish where it was cleaned and carefully stripped of the fibroadipose tissue surrounding it. Rings of 0.5 mm were cut, using a fresh scalpel blade, from the length of the aorta. These were kept under sterile conditions in a biohazard hood where they were washed 12 times with MEM.
# Before transferring the aortic rings to the culture plate, the bottom of each agarose well was coated with 150 μL of clotting fibrinogen. Fibrinogen was made up as a […] solution in MEM, while Thrombin made up in distilled water to give a concentration of 50 U/mL. The fibrinogen (1 mL) and the thrombin (20 μL) reacted within 30 sec to form a solid gel.
# The aortic rings were transferred to the 6-well plates, with one ring placed in the center of each agarose well. Fresh fibrinogen/thrombin was made up as before and 150 μL was used to seal in each aortic ring. The gels were rested for approximately 2 hours before the medium was added.
# […] The compounds were made up as 6 mg/mL solution in water or DMSO. The test solutions were added to each well with the medium.
# Six mL of MEM were carefully added to each of three wells to become the controls. MEM, along with the test compounds were added to the remaining wells and all were covered and transferred to the CO2 Incubator at 37° C., where they were kept for the next 14 days.
# However, by the fifth day, there were noticeable changes in the tissue. Micro-vessels were seen and scored. We have based the scoring method on that used by Liekens et al., (Liekins, S. et al., Oncol. Res. 9: 173-181, 1997) in which 0 meant no vessels and 10 meant maximum vessels; the score is then converted into a percentage inhibition of vessel growth.
# [1] = 120 h, 20 μg/ml, day 5, read-out: Growth Inhibition Day 5 (%)
# [2] = 100 μg/ml, test slow to establish, read after 15 days (footnote *), read-out: Growth inhibition after 15 days
# [3] = 120 h, 50 μg/ml, day 5, read-out: Growth Inhibition Day 5 (%)
# [4] = 264 h, 20 μg/ml, day 11, read-out: Growth Inhibition Day 11 (%)
# [5] = 264 h, 50 μg/ml, day 11, read-out: Growth Inhibition Day 11 (%)
# [6] = 120 h, 10 μg/ml, day 5, read-out: Growth Inhibition Day 5 (%)
# [7] = 120 h, 100 μg/ml, day 5, read-out: Growth Inhibition Day 5 (%)
# [8] = 264 h, 100 μg/ml, day 11, read-out: Growth Inhibition Day 11 (%)
smiles,measurement,setting,value
"C=CCNC(=O)n1c(=O)[nH]c2ccccc21 [Example 13, 2-Oxo-2,3-dihydrobenzoimidazole-1-carboxylic acid allylamide]",inhibition at 4 µg/mL,"120 h, 4 μg/ml, day 5",0%
same,inhibition at 20 µg/mL,[1],20%
"O=C(C1CCCN1)n1c(=O)[nH]c2ccccc21 (stereo not drawn) [Example 12, 1-(Pyrrolidine-2-carbonyl)-1,3-dihydrobenzoimidazol-2-one trifluoroacetic acid salt]",inhibition at 4 µg/mL,"120 h, 4 μg/ml, day 5",50%
same,inhibition at 20 µg/mL,[1],70%
"O=C([O-])c1cccc(NC(=O)n2c(=O)[nH]c3ccccc32)c1.[Na+] [Sodium salt of 3, N-(3-Carboxyphenyl)-2,3-dihydro-2-oxo-1H-benzimidazole-1-carboxamide Sodium Salt]",Growth Inhibition Day 5 (%),"100 μg/ml, day 5",70%
same,Growth Inhibition Day 11 (%),"100 μg/ml, day 11",80%
"O=C(O)Cc1ccc(NC(=O)n2c(=O)[nH]c3ccccc32)cc1 [Example 7, N-(4-Carboxymethylphenyl)-2,3-dihydro-2-oxo-1H-benzimidazole-1-carboxamide]",inhibition at 100 µg/mL,[2],100%
same,inhibition at 20 µg/mL,[1],80%
same,inhibition at 50 µg/mL,[3],80%
same,inhibition at 20 µg/mL,[4],0%
same,inhibition at 50 µg/mL,[5],100%
"O=C(O)c1cc(NC(=O)n2c(=O)[nH]c3ccccc32)cc(C(=O)O)c1 [Example 23, 5-[(2-oxo-2,3-dihydrobenzimidazole-1-carbonyl)-amino]isophthalic acid]",inhibition at 10 µg/mL,[6],10%
"O=C(O)c1ccc(NC(=O)n2c(=O)[nH]c3ccccc32)cc1 [Example 4, N-(4-Carboxyphenyl)-2,3-dihydro-2-oxo-1H-benzimidazole-1-carboxamide]",inhibition at 100 µg/mL,[2],100%
same,inhibition at 20 µg/mL,[1],100%
same,inhibition at 50 µg/mL,[3],90%
same,inhibition at 20 µg/mL,[4],70%
same,inhibition at 50 µg/mL,[5],95%
"O=C(Nc1ccccc1)n1c(=O)[nH]c2cncnc21 [Example 14, 8-Oxo-7,8-dihydropurine-9-carboxylic acid phenylamide]",inhibition at 4 µg/mL,"120 h, 4 μg/ml, day 5",20%
same,inhibition at 20 µg/mL,[1],40%
same,inhibition at 50 µg/mL,[3],20%
"O=C(O)c1cccc(NC(=O)n2c(=O)[nH]c3ccccc32)c1 [Example 3, N-(3-Carboxyphenyl)-2,3-dihydro-2-oxo-1H-benzimidazole-1-carboxamide]",inhibition at 100 µg/mL,[7],60%
same,inhibition at 100 µg/mL,[8],60%
"O=C(Nc1ccccc1)n1c(=S)[nH]c2ccccc21 [Example 11, 2-Thioxo-2,3-dihydrobenzoimidazole-1-carboxylic acid phenylamide]",inhibition at 4 µg/mL,"120 h, 4 μg/ml, day 5",0%
same,inhibition at 50 µg/mL,[3],100%
"O=C(Nc1cccc(B(O)O)c1)n1c(=O)[nH]c2ccccc21 [Example 2, N-(Phenyl-3-boronic acid)-2,3-dihydro-2-oxo-1H-benzimidazole-1-carboxamide]",Growth Inhibition Day 5 (%),"4 μg/ml, day 5",50%
same,Growth Inhibition Day 11 (%),"4 μg/ml, day 11",0%
same,Growth Inhibition Day 5 (%),"20 μg/ml, day 5",100%
same,Growth Inhibition Day 11 (%),"20 μg/ml, day 11",100%
same,Growth Inhibition Day 5 (%),"50 μg/ml, day 5",100%
same,Growth Inhibition Day 11 (%),"50 μg/ml, day 11",100%
same,Growth inhibition after 15 days,"100 μg/ml, test slow to establish, read after 15 days (footnote *)",100* %
"O=C1NS(=O)(=O)c2ccc(NC(=O)n3c(=O)[nH]c4ccccc43)cc21 [Example 20, 2-oxo-2,3-dihydrobenzimidazole-1-carboxylic acid (1,1,3-trioxo-2,3-dihydro-1H-1λ^6-benzo[d]isothiazol-5-yl)amide]",inhibition at 10 µg/mL,[6],100%
same,inhibition at 10 µg/mL,"264 h, 10 μg/ml, day 11, read-out: Growth Inhibition Day 11 (%)",70%
"O=C(O)c1ccccc1NC(=O)n1c(=O)[nH]c2ccccc21 [Example 5, N-(2-Carboxyphenyl)-2,3-dihydro-2-oxo-1H-benzimidazole-1-carboxamide]",inhibition at 100 µg/mL,[2],90%
same,inhibition at 20 µg/mL,[1],0%
same,inhibition at 50 µg/mL,[3],10%
same,inhibition at 20 µg/mL,[4],0%
same,inhibition at 50 µg/mL,[5],0%
"O=C(Nc1ccc(B(O)O)cc1)n1c(=O)[nH]c2ccccc21 [Example 28, N-(phenyl-4-boronic acid)-2,3-dihydro-2-oxo-1H-benzimidazole-1-carboxamide]",Growth Inhibition Day 11 (%),"4 μg/ml, day 11",20%
same,Growth Inhibition Day 11 (%),"10 μg/ml, day 11",20%
"CC(C)(C)c1ccc(NC(=O)n2c(=O)[nH]c3ccccc32)cc1 [Example 16, 2-Oxo-2,3-dihydrobenzoimidazole-1-carboxylic acid (4-t-butylphenyl)amide]",inhibition at 10 µg/mL,[6],10%
"CCOC(=O)c1cccc(NC(=O)n2c(=O)[nH]c3ccccc32)c1 [Example 9, N-(3-Ethoxycarbonylphenyl)-2,3-dihydro-2-oxo-1H-benzimidazole-1-carboxamide]",inhibition at 100 µg/mL,[7],70%
same,inhibition at 100 µg/mL,[8],10%
"O=C(Nc1ccccc1)n1c(=O)[nH]c2ccccc21 [Example 17, 2-Oxo-2,3-dihydrobenzimidazole-1-carboxylic acid phenylamide]",inhibition at 4 µg/mL,"120 h, 4 μg/ml, day 5",50%
same,inhibition at 20 µg/mL,[1],30%
same,inhibition at 50 µg/mL,[3],95%
"O=C(Nc1ccc(OP(=O)(O)O)cc1)n1c(=O)[nH]c2ccccc21 [Example 26, Phosphoric acid mono-{4[(2-oxo-2,3-dihydrobenzimidazole-1-carbonyl)-amino]-phenyl} ester]",inhibition at 10 µg/mL,"120 h, read-out: Growth Inhibition Day 5 (%)",90%
same,inhibition at 10 µg/mL,"264 h, read-out: Growth Inhibition Day 11 (%)",40%
